Results reported in DBAASP.
Values after ≈ are worked out from the molar mass of the structure shown.

Experiments:
Assay in all cases: ≥ marks a high value that may be exact or a test limit, other limits are often not marked, values filed in µg/mL are converted to µM
[1] = test system: Escherichia coli
[2] = test system: Staphylococcus aureus
[3] = test system: Staphylococcus aureus MR
[4] = test system: Pseudomonas aeruginosa
[5] = test system: Escherichia coli ML-35p
[6] = test system: Pseudomonas aeruginosa ATCC 27853
[7] = test system: Candida albicans ATCC 2002
[8] = test system: Staphylococcus aureus ATCC 2592
[9] = test system: Staphylococcus aureus ATCC 43300
[10] = test system: Pseudomonas aeruginosa PAO1
[11] = test system: Bacillus subtilis
[12] = test system: Pseudomonas aeruginosa CMCCB 10104
[13] = test system: Staphylococcus aureus ATCC 25923
[14] = test system: Escherichia coli ATCC 25922
[15] = test system: Leuconostoc lactis
[16] = test system: Staphylococcus epidermidis
[17] = test system: Pasteurella multocida
[18] = test system: Streptococcus uberis
[19] = test system: Bacillus cereus
[20] = test system: Listeria innocua
[21] = test system: Micrococcus luteus
[22] = test system: Staphylococcus aureus NCTC 10788
[23] = test system: Escherichia coli NCTC 10418
[24] = test system: Candida albicans NCPF 1467

| SMILES | MIC [1] [µM] | MIC [2] [µM] | MIC [15] [µM] | MIC [16] [µM] | MIC [17] [µM] | MIC [18] [µM] | MIC [19] [µM] | MIC [20] [µM] | MIC [21] [µM] | also measured |
| --- | --- | --- | --- | --- | --- | --- | --- | --- | --- | --- |
| CC[C@H](C)[C@H](NC(=O)[C@H](C)NC(=O)[C@H](CC(C)C)NC(=O)[C@H](CS)NC(=O)[C@H](Cc1cnc[nH]1)NC(=O)[C@H](C)N)C(=O)NCC(=O)N[C@@H](CCCN=C(N)N)C(=O)N[C@@H](CCCCN)C(N)=O [AHCLAIGRK] | 25.8 | 25.8 |  |  |  |  |  |  |  | MIC [3]: ≥ 51.6 µM; MIC [4]: > 51.6 µM |
| CC[C@H](C)[C@H](NC(=O)[C@H](C)NC(=O)[C@@H](NC(=O)[C@@H]1CCCN1C(=O)[C@H](CC(C)C)NC(=O)[C@@H](NC(=O)[C@H](CO)NC(=O)[C@@H](NC(=O)[C@H](C)NC(=O)[C@H](CCSC)NC(=O)[C@H](CCCCN)NC(=O)[C@H](CC(C)C)NC(=O)[C@@H](NC(=O)[C@@H]1CCCN1C(=O)CNC(=O)[C@@H](NC(=O)[C@@H](N)Cc1ccccc1)[C@@H](C)CC)C(C)C)[C@@H](C)O)[C@@H](C)CC)[C@@H](C)O)C(=O)N[C@H]1CSSC[C@@H](C(=O)O)NC(=O)[C@H](CCCCN)NC(=O)[C@H](CCCCN)NC(=O)[C@H](Cc2ccccc2)NC(=O)CNC(=O)[C@H](CCCCN)NC1=O [FIGPVLKMATSILPTAICKGFKKC] |  |  |  |  |  |  |  |  |  | MIC [5]: 19.5 µM (≈ 50 µg/mL); MIC [6]: 1.95 µM (≈ 5 µg/mL); MIC [7]: 3.9 µM (≈ 9.99 µg/mL); MIC [8]: 1.95 µM (≈ 5 µg/mL); MIC [9]: 3.9 µM (≈ 9.99 µg/mL); MIC [10]: 3.9 µM (≈ 9.99 µg/mL); MIC [11]: 7.79 µM (≈ 20 µg/mL) |
| CC[C@H](C)[C@H](NC(=O)CN)C(=O)N[C@@H](CC(C)C)C(=O)N[C@@H](CO)C(=O)NCC(=O)N[C@H](C(=O)N[C@@H](CC(C)C)C(=O)NCC(=O)N[C@@H](CCSC)C(=O)NCC(=O)N[C@@H](CCCCN)C(=O)N[C@@H](CCCCN)C(=O)N[C@H](C(=O)N[C@H](C(=O)N[C@H]1CSSC[C@@H](C(=O)O)NC(=O)[C@H](CC(C)C)NC(=O)CNC(=O)[C@H](CCCN=C(N)N)NC(=O)[C@H](CC(C)C)NC(=O)CNC1=O)C(C)C)[C@@H](C)CC)C(C)C [GILSGVLGMGKKIVCGLRGLC] |  |  |  |  |  |  |  |  |  | MIC [12]: 6.84 µM (≈ 14.2 µg/mL); MIC [13]: 1.74 µM (≈ 3.6 µg/mL); MIC [7]: 3.47 µM (≈ 7.19 µg/mL); MIC [14]: 3.47 µM (≈ 7.19 µg/mL) |
| CC[C@H](C)[C@H](NC(=O)[C@@H](NC(=O)[C@H](C)NC(=O)[C@H](Cc1ccccc1)NC(=O)[C@H](CC(C)C)NC(=O)CN)C(C)C)C(=O)N[C@@H](CCCCN)C(=O)N[C@@H](CCCCN)C(=O)N[C@H](C(=O)N[C@@H](C)C(=O)N[C@@H](CO)C(=O)N[C@H](C(=O)N[C@H](C(=O)N[C@@H](CCCCN)C(=O)NCC(=O)N[C@@H](CC(C)C)C(N)=O)[C@@H](C)CC)C(C)C)C(C)C [GLFAVIKKVASVIKGL] | 30.4 (≈ 50 µg/mL) | 7.3 (≈ 12 µg/mL) | 1.83 (≈ 3 µg/mL) | 3.65 (≈ 6 µg/mL) | ≥ 60.9 | 15.2 (≈ 25 µg/mL) | 15.2 (≈ 25 µg/mL) | 7.3 (≈ 12 µg/mL) | 3.65 (≈ 6 µg/mL) |  |
| CC[C@H](C)[C@H](NC(=O)[C@H](CC(=O)O)NC(=O)[C@H](Cc1ccccc1)NC(=O)[C@H](CC(C)C)NC(=O)CN)C(=O)N[C@H](C(=O)N[C@@H](CCCCN)C(=O)N[C@@H](CCCCN)C(=O)N[C@H](C(=O)N[C@@H](C)C(=O)N[C@@H](CO)C(=O)N[C@H](C(=O)N[C@H](C(=O)NCC(=O)NCC(=O)N[C@@H](CC(C)C)C(N)=O)C(C)C)C(C)C)C(C)C)[C@@H](C)CC [GLFDIIKKVASVVGGL] | > 61.9 | 15.5 (≈ 25 µg/mL) | 1.86 (≈ 3 µg/mL) | 15.5 (≈ 25 µg/mL) | ≥ 61.9 | 7.43 (≈ 12 µg/mL) | 15.5 (≈ 25 µg/mL) | ≥ 61.9 | 7.43 (≈ 12 µg/mL) |  |
| CC[C@H](C)[C@H](NC(=O)[C@H](CO)NC(=O)CNC(=O)[C@H](C)NC(=O)[C@@H](NC(=O)[C@H](Cc1cnc[nH]1)NC(=O)CNC(=O)[C@H](C)NC(=O)[C@@H](NC(=O)[C@H](CCCCN)NC(=O)[C@H](CCCCN)NC(=O)[C@@H](NC(=O)[C@@H](NC(=O)[C@H](CC(=O)O)NC(=O)[C@H](Cc1ccccc1)NC(=O)[C@H](CC(C)C)NC(=O)CN)[C@@H](C)CC)C(C)C)[C@@H](C)CC)[C@@H](C)CC)C(N)=O [GLFDIVKKIAGHIAGSI] | > 57.5 | 28.8 (≈ 50 µg/mL) | 6.9 (≈ 12 µg/mL) | ≥ 57.5 | ≥ 57.5 | ≥ 57.5 | ≥ 57.5 | ≥ 57.5 | ≥ 57.5 |  |
| CC[C@H](C)[C@H](NC(=O)[C@@H](NC(=O)[C@H](CC(=O)O)NC(=O)[C@H](Cc1ccccc1)NC(=O)[C@H](CC(C)C)NC(=O)CN)C(C)C)C(=O)N[C@@H](C)C(=O)N[C@@H](CCCCN)C(=O)N[C@H](C(=O)N[C@@H](C)C(=O)N[C@@H](CO)C(=O)N[C@H](C(=O)N[C@H](C(=O)N[C@@H](CCCCN)C(=O)N[C@@H](CCCCN)C(=O)N[C@@H](CC(C)C)C(N)=O)[C@@H](C)CC)C(C)C)C(C)C [GLFDVIAKVASVIKKL] | 29.4 (≈ 50 µg/mL) | 3.53 (≈ 6 µg/mL) | 3.53 (≈ 6 µg/mL) | 3.53 (≈ 6 µg/mL) | ≥ 58.8 | 7.05 (≈ 12 µg/mL) | 7.05 (≈ 12 µg/mL) | 14.7 (≈ 25 µg/mL) | 7.05 (≈ 12 µg/mL) |  |
| CC[C@H](C)[C@H](NC(=O)[C@@H](NC(=O)CNC(=O)[C@@H](NC(=O)[C@@H](NC(=O)[C@H](Cc1cnc[nH]1)NC(=O)[C@@H]1CCCN1C(=O)[C@H](CC(C)C)NC(=O)[C@@H](NC(=O)[C@H](Cc1cnc[nH]1)NC(=O)[C@H](CCCCN)NC(=O)[C@H](C)NC(=O)[C@@H](NC(=O)[C@H](CO)NC(=O)CNC(=O)[C@H](CC(C)C)NC(=O)[C@@H](NC(=O)[C@H](CO)NC(=O)[C@H](CC(C)C)NC(=O)[C@H](CC(C)C)NC(=O)CN)C(C)C)C(C)C)C(C)C)C(C)C)C(C)C)C(C)C)C(=O)N[C@@H](C)C(=O)N[C@@H](CCC(=O)O)C(=O)N[C@@H](Cc1cnc[nH]1)C(=O)N[C@@H](CC(C)C)C(N)=O [GLLSVLGSVAKHVLPHVVGVIAEHL] | > 39.3 | 9.82 (≈ 25 µg/mL) | 4.91 (≈ 12.5 µg/mL) | ≥ 39.3 | 19.6 (≈ 50 µg/mL) | 9.82 (≈ 25 µg/mL) | ≥ 39.3 | 9.82 (≈ 25 µg/mL) | 4.91 (≈ 12.5 µg/mL) |  |
| CC[C@H](C)[C@H](NC(=O)[C@@H](NC(=O)CN)C(C)C)C(=O)N[C@@H](CC(=O)O)C(=O)N[C@@H](C)C(=O)N[C@@H](C)C(=O)N[C@@H](CCCCN)C(=O)N[C@@H](CCCCN)C(=O)N[C@H](C(=O)N[C@H](C(=O)N[C@@H](CC(N)=O)C(=O)N[C@H](C(=O)N[C@@H](CC(C)C)C(=O)N[C@@H](CCCCN)C(=O)N[C@@H](CC(N)=O)C(=O)N[C@@H](CC(C)C)C(=O)N1CCC[C@H]1C(N)=O)C(C)C)C(C)C)C(C)C [GVIDAAKKVVNVLKNLP] | > 56.2 | 14.1 (≈ 25 µg/mL) | 1.69 (≈ 3 µg/mL) | 7.03 (≈ 12.5 µg/mL) | ≥ 56.2 | 7.03 (≈ 12.5 µg/mL) | 14.1 (≈ 25 µg/mL) | 28.1 (≈ 50 µg/mL) | 14.1 (≈ 25 µg/mL) |  |
| CC[C@H](C)[C@H](NC(=O)CNC(=O)[C@@H]1CCCN1C(=O)[C@H](CC(C)C)NC(=O)[C@H](C)NC(=O)[C@H](CC(N)=O)NC(=O)[C@H](CCCCN)NC(=O)[C@H](Cc1ccccc1)NC(=O)[C@H](C)NC(=O)[C@H](CO)NC(=O)[C@H](CC(C)C)NC(=O)[C@@H](NC(=O)CN)C(C)C)C(=O)N[C@@H](CCSC)C(=O)N[C@@H](CCCCN)C(=O)N[C@H](C(=O)N[C@H](C(=O)N[C@H](C(N)=O)C(C)C)[C@@H](C)CC)[C@@H](C)CC [GVLSAFKNALPGIMKIIV] |  |  |  |  |  |  |  |  |  | MIC [22]: 4.28 µM (≈ 8 µg/mL); MIC [23]: ≥ 34.2 µM; MIC [24]: 8.55 µM (≈ 16 µg/mL) |
